Test results taken from patent US10807986B2, “Fused pyrimidine compound or salt thereof” (TAIHO PHARMACEUTICAL CO., LTD., priority 2016, dated 2020).

Assay: Evaluation of stability in liver microsome
Settings: mouse liver microsome 0.25 mg/mL, test compound 1 μM, 37° C., 30 minutes

SMILES | Remaining (%)
Nc1ncnc2c1c(C(=O)Nc1ccc(Oc3ccccc3)cc1)cn2C1CCCC1 [Compound 2 of Comparative Examples, 4-amino-7-cyclopentyl-N-(4-phenoxyphenyl)-7H-pyrrolo[2,3-d]pyrimidine-5-carboxamide, reference compound] | 0
COCc1ccc(NC(=O)c2cn(C(C)(C)C)c3ncnc(N)c23)cc1 [Example 2, 4-amino-7-(tert-butyl)-N-(4-(methoxymethyl)phenyl)-7H-pyrrolo[2,3-d]pyrimidine-5-carboxamide] | 64
COCc1ccc(NC(=O)c2cn(C(C)(C)C)c3ncnc(N)c23)cc1F [Example 30, 4-amino-7-(tert-butyl)-N-(3-fluoro-4-(methoxymethyl)phenyl)-7H-pyrrolo[2,3-d]pyrimidine-5-carboxamide] | 54
COCc1ccc(NC(=O)c2cn(C(C)(C)C)c3ncnc(N)c23)c(OC)c1 [Example 33, 4-amino-7-(tert-butyl)-N-(2-methoxy-4-(methoxymethyl)phenyl)-7H-pyrrolo[2,3-d]pyrimidine-5-carboxamide] | 57
[2H]C([2H])([2H])OCc1ccc(NC(=O)c2cn(C(C)(C)C)c3ncnc(N)c23)cc1 [Example 35, 4-amino-7-(tert-butyl)-N-(4-((methoxy-d3)-methyl)phenyl)-7H-pyrrolo[2,3-d]pyrimidine-5-carboxamide] | 58
COCc1ccc(NC(=O)c2cn(C3(C)CC3)c3ncnc(N)c23)cc1 [Example 36, 4-amino-N-(4-(methoxymethyl)phenyl)-7-(1-methylcyclopropyl)-7H-pyrrolo[2,3-d]pyrimidine-5-carboxamide] | 73
COCc1ccc(NC(=O)c2cn(C(C)(C)CF)c3ncnc(N)c23)cc1F [Example 41, 4-amino-7-(1-fluoro-2-methylpropan-2-yl)-N-(3-fluoro-4-(methoxymethyl)phenyl)-7H-pyrrolo[2,3-d]pyrimidine-5-carboxamide] | 56
COCc1ccc(NC(=O)c2cn(C3(CF)CC3)c3ncnc(N)c23)cc1 [Example 45, 4-amino-7-(1-(fluoromethyl)cyclopropyl)-N-(4-(methoxymethyl)phenyl)-7H-pyrrolo[2,3-d]pyrimidine-5-carboxamide] | 66
COCc1ccc(NC(=O)c2cn(C3(C(F)F)CC3)c3ncnc(N)c23)cc1 [Example 46, 4-amino-7-(1-(difluoromethyl)cyclopropyl)-N-(4-(methoxymethyl)phenyl)-7H-pyrrolo[2,3-d]pyrimidine-5-carboxamide] | 65
COCc1ccc(NC(=O)c2cn(C3(C)CC3)c3ncnc(N)c23)cc1F [Example 48, 4-amino-N-(3-fluoro-4-(methoxymethyl)phenyl)-7-(1-methylcyclopropyl)-7H-pyrrolo[2,3-d]pyrimidine-5-carboxamide] | 58
COCc1ccc(NC(=O)c2cn(C3(C4CC4)CC3)c3ncnc(N)c23)cc1 [Example 49, 7-{[1,1-bi(cyclopropane)]-1-yl}-4-amino-N-(4-(methoxymethyl)phenyl)-7H-pyrrolo[2,3-d]pyrimidine-5-carboxamide] | 67
COCc1ccc(NC(=O)c2cn(C(C)(C)C(F)F)c3ncnc(N)c23)cc1 [Example 50, 4-amino-7-(1,1-difluoro-2-methylpropan-2-yl)-N-(4-(methoxymethyl)phenyl)-7H-pyrrolo[2,3-d]pyrimidine-5-carboxamide] | 53
COCc1ccc(NC(=O)c2c(Br)n(C3(C)CC3)c3ncnc(N)c23)cc1 [Example 55, 4-amino-6-bromo-N-[4-(methoxymethyl)phenyl]-7-(1-methylcyclopropyl)-7H-pyrrolo[2,3-d]pyrimidine-5-carboxamide] | 56
COCc1ccc(NC(=O)c2c(Cl)n(C3(C)CC3)c3ncnc(N)c23)cc1 [Example 56, 4-amino-6-chloro-N-[4-(methoxymethyl)phenyl]-7-(1-methylcyclopropyl)-7H-pyrrolo[2,3-d]pyrimidine-5-carboxamide] | 62
COCc1ccc(NC(=O)c2c(OC)n(C3(C)CC3)c3ncnc(N)c23)cc1 [Example 57, 4-amino-6-methoxy-N-[4-(methoxymethyl)phenyl]-7-(1-methylcyclopropyl)-7H-pyrrolo[2,3-d]pyrimidine-5-carboxamide] | 86
COCc1ccc(NC(=O)c2c(C)n(C(C)(C)C)c3ncnc(N)c23)cc1 [Example 60, 4-amino-7-(tert-butyl)-N-(4-(methoxymethyl)phenyl)-6-methyl-7H-pyrrolo[2,3-d]pyrimidine-5-carboxamide] | 81
COCc1ccc(NC(=O)c2c(-c3cccnc3)n(C3(C)CC3)c3ncnc(N)c23)cc1 [Example 61, 4-amino-N-(4-(methoxymethyl)phenyl)-7-(1-methylcyclopropyl)-6-(pyridin-3-yl)-7H-pyrrolo[2,3-d]pyrimidine-5-carboxamide] | 81
COCc1ccc(NC(=O)c2c(C(C)=O)n(C3(C)CC3)c3ncnc(N)c23)cc1 [Example 64, 6-acetyl-4-amino-N-(4-(methoxymethyl)phenyl)-7-(1-methylcyclopropyl)-7H-pyrrolo[2,3-d]pyrimidine-5-carboxamide] | 89
C=Cc1c(C(=O)Nc2ccc(COC)cc2)c2c(N)ncnc2n1C1(C)CC1 [Example 65, 4-amino-N-(4-(methoxymethyl)phenyl)-7-(1-methylcyclopropyl)-6-vinyl-7H-pyrrolo[2,3-d]pyrimidine-5-carboxamide] | 79
COCc1ccc(NC(=O)c2c(F)n(C3(C)CC3)c3ncnc(N)c23)cc1 [Example 69, 4-amino-6-fluoro-N-(4-(methoxymethyl)phenyl)-7-(1-methylcyclopropyl)-7H-pyrrolo[2,3-d]pyrimidine-5-carboxamide] | 69
COCc1ccc(NC(=O)c2c(OCC(C)C)n(C3(C)CC3)c3ncnc(N)c23)cc1 [Example 99, 4-amino-6-isobutoxy-N-(4-(methoxymethyl)phenyl)-7-(1-methylcyclopropyl)-7H-pyrrolo[2,3-d]pyrimidine-5-carboxamide] | 51

The remaining lines, values ahead:

Remaining (%) | SMILES
50 | CC(C)(C)n1cc(C(=O)Nc2ccc(-c3cc[nH]n3)cc2)c2c(N)ncnc21 [Example 80, N-(4-(1H-pyrazol-3-yl)phenyl)-4-amino-7-(tert-butyl)-7H-pyrrolo[2,3-d]pyrimidine-5-carboxamide]
66 | COCc1ccc(NC(=O)c2c(C#CCC(C)(C)O)n(C3(C)CC3)c3ncnc(N)c23)cc1 [Example 86, 4-amino-6-(4-hydroxy-4-methylpent-1-yn-1-yl)-N-[4-(methoxymethyl)phenyl]-7-(1-methylcyclopropyl)-7H-pyrrolo[2,3-d]pyrimidine-5-carboxamide]
63 | COCc1ccc(NC(=O)c2c(C#CC3CCOCC3)n(C3(C)CC3)c3ncnc(N)c23)cc1 [Example 87, 4-amino-N-[4-(methoxymethyl)phenyl]-7-(1-methylcyclopropyl)-6-((tetrahydro-2H-pyran-4-yl)ethynyl)-7H-pyrrolo[2,3-d]pyrimidine-5-carboxamide]
59 | COCc1ccc(NC(=O)c2c(C#CCN3CCCC3)n(C3(C)CC3)c3ncnc(N)c23)cc1 [Example 88, 4-amino-N-[4-(methoxymethyl)phenyl]-7-(1-methylcyclopropyl)-6-(3-(pyrrolidin-1-yl)prop-1-yn-1-yl)-7H-pyrrolo[2,3-d]pyrimidine-5-carboxamide]
69 | COCc1ccc(NC(=O)c2c(OC[C@H]3CCCO3)n(C3(C)CC3)c3ncnc(N)c23)cc1 [Example 89, (R)-4-amino-N-[4-(methoxymethyl)phenyl]-7-(1-methylcyclopropyl)-6-((tetrahydrofuran-2-yl)methoxy)-7H-pyrrolo[2,3-d]pyrimidine-5-carboxamide]
67 | COCc1ccc(NC(=O)c2c(C#Cc3cnn(C)c3)n(C3(C)CC3)c3ncnc(N)c23)cc1 [Example 90, 4-amino-N-[4-(methoxymethyl)phenyl]-6-((1-methyl-1H-pyrazol-4-yl)ethynyl)-7-(1-methylcyclopropyl)-7H-pyrrolo[2,3-d]pyrimidine-5-carboxamide]
65 | COCc1ccc(NC(=O)c2c(C#Cc3cnc4cccnn34)n(C3(C)CC3)c3ncnc(N)c23)cc1 [Example 91, 4-amino-6-(imidazo[1,2-b]pyridazin-3-ylethynyl)-N-[4-(methoxymethyl)phenyl]-7-(1-methylcyclopropyl)-7H-pyrrolo[2,3-d]pyrimidine-5-carboxamide]
67 | COCc1ccc(NC(=O)c2c(C#Cc3ccn(C)n3)n(C3(C)CC3)c3ncnc(N)c23)cc1 [Example 92, 4-amino-N-(4-(methoxymethyl)phenyl)-6-((1-methyl-1H-pyrazol-3-yl)ethynyl)-7-(1-methylcyclopropyl)-7H-pyrrolo[2,3-d]pyrimidine-5-carboxamide]
53 | COCc1ccc(NC(=O)c2c(C#Cc3cncn3C)n(C3(C)CC3)c3ncnc(N)c23)cc1 [Example 93, 4-amino-N-(4-(methoxymethyl)phenyl)-6-((1-methyl-1H-imidazol-5-yl)ethynyl)-7-(1-methylcyclopropyl)-7H-pyrrolo[2,3-d]pyrimidine-5-carboxamide]
60 | COCc1ccc(NC(=O)c2c(C#Cc3cccnc3)n(C3(C)CC3)c3ncnc(N)c23)cc1 [Example 94, 4-amino-N-[4-(methoxymethyl)phenyl]-7-(1-methylcyclopropyl)-6-(pyridin-3-ylethynyl)-7H-pyrrolo[2,3-d]pyrimidine-5-carboxamide]
71 | COCc1ccc(NC(=O)c2c(OC[C@@H](C)OC)n(C3(C)CC3)c3ncnc(N)c23)cc1 [Example 96, (R)-4-amino-N-(4-(methoxymethyl)phenyl)-6-(2-methoxypropoxy)-7-(1-methylcyclopropyl)-7H-pyrrolo[2,3-d]pyrimidine-5-carboxamide]
70 | COCc1ccc(NC(=O)c2c(OC[C@@H]3CCCO3)n(C3(C)CC3)c3ncnc(N)c23)cc1 [Example 97, (S)-4-amino-N-(4-(methoxymethyl)phenyl)-7-(1-methylcyclopropyl)-6-((tetrahydrofuran-2-yl)methoxy)-7H-pyrrolo[2,3-d]pyrimidine-5-carboxamide]
